Tests used:
[1] = molecular target: T1, Human STAT6 (truncated, aa122-658, with N-terminal His-tag) (Homo sapiens, UniProt P42226); assay: Surface plasmon resonance (SPR) assay, binding to human STAT6; details: Biacore 8K, 25° C, immobilized human STAT6 on CM5 chip, multi-cycle kinetics; geometric mean
T1 construct: Human STAT6 (truncated, aa122-658, with N-terminal His-tag, expressed in insect cells); His-tag (N); made in house; host or cells: insect cells
T1 sequence (P42226 122-658): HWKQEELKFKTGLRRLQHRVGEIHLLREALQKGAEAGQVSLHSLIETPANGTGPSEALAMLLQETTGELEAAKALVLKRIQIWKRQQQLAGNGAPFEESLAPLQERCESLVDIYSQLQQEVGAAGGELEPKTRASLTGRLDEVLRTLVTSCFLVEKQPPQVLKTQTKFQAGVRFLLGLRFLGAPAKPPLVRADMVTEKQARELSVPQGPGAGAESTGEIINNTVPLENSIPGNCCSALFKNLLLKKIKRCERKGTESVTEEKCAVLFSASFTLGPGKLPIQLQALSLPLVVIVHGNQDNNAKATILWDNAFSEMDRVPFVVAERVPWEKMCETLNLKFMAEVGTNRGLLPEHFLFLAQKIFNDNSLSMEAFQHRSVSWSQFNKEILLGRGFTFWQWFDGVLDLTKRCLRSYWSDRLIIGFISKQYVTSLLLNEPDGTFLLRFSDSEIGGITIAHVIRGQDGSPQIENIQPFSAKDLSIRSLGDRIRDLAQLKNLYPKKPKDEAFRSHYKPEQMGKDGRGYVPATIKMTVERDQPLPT
Procedure: Surface Plasmon Resonance Assay
Biacore instruments from the 8K-series (Cytiva) were used, and measurements were performed at 25° C. Human STAT6 (truncated, aa122-658, with N-terminal His-tag, expressed in insect cells) was immobilized in the active flow cells on a CM5 chip using amine-coupling (default settings) at 10 μg/ml in 10 mM acetate buffer pH 5.5, at a contact time of 120-420 sec. and a flow rate of 10 μl/min. Reference flow cells were deactivated using blank immobilization. PBS-P+(Cytiva) supplemented with 2% DMSO was used as running buffer, and solvent correction was applied. Compounds were tested by multi-cycle kinetics injections using a contact time of 60 sec., dissociation time of up to 300 sec., and a flow rate of 30 μl/min.
Solvent-corrected, reference-subtracted and blank-corrected data was processed and binding isotherms were fitted according to a single report point from each sensorgram (Standard: Late binding (5 sec. before injection end); alternative: Earlier report point according to binding profile). Data fitting was done both with unfixed Rmax and with Rmax fixed to the theoretical value* assuming 1:1 binding to allow processing of data from both weak and strong binders as well as to evaluate binding stoichiometry.
Positive controls were run at the beginning, during, and at the end of the screen to evaluate surface activity.
*Equation for calculation of the theoretical Rmax(Theoretical Rmax=(MW Analyte/MW Ligand)×immobilization level).

[2] = test system: Eotaxin-3 (CCL26) release in human whole blood stimulated with IL-4; assay: Human whole blood eotaxin-3 assay (IL-4 stimulated eotaxin-3 release); format: cell-based; details: human whole blood stimulated with recombinant human IL-4, 48 h, geometric mean; for EC50: inhibition of eotaxin-3 release, given for test compounds with >80% Emax
Summary of the method: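 Lithium-heparin human whole blood was preincubated with compound (4-fold serial dilution, 0.5% DMSO final) for 2 h at 37° C, then stimulated with recombinant human IL-4 at […] final for 48 h. Eotaxin-3 (CCL26) in the supernatant was measured by MSD immunoassay.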

| Structure (SMILES) | Kd [1] | also measured |
| --- | --- | --- |
| CN(C)C(=O)c1ccc(C2CCN(Cc3cc4c(-n5ccc6[nH]nc(C(F)(F)F)c6c5=O)ccnc4n3C)C(=O)C2)cc1 (single isomer, unassigned) [Example 1ab1] | 61 nM | Emax ([2]; Homo sapiens, 48 h, given for test compounds with <80% Emax): 30 to 40% |
| CN(C)C(=O)c1ccc(C2CCN(Cc3cc4c(-n5ccc6[nH]nc(C(F)(F)F)c6c5=O)ccnc4n3C)C(=O)C2)cc1 (single isomer, unassigned) [Example 1ab2] | 37.6 nM | Eotaxin-3 Emax (%) ([2]; given for test compounds with <80% Emax): 50-60% |
| CNc1ccn(-c2ccnc3c2cc(CN2CC[C@H](c4ccc(C(=O)N(C)C)cc4)[C@@H](F)C2)n3C)c(=O)c1 (single isomer, unassigned) [Example 1f3] | 32.5 nM | EC50 ([2]; Homo sapiens, 48 h): 289 nM |
| CNc1ccn(-c2ccnc3c2cc(CN2CC[C@@H](c4ccc(C(=O)N(C)C)cc4)[C@H](F)C2)n3C)c(=O)c1 (single isomer, unassigned) [Example 1f4] | 32.2 nM | EC50 ([2]; Homo sapiens, 48 h): 205 nM |
| CNc1ccn(-c2ccnc3c2cc(CN2CC[C@@H](c4ccc(C(=O)N(C)C)cc4)[C@@H](F)C2)n3C)c(=O)c1 (single isomer, unassigned) [Example 1f7] | 21.7 nM | EC50 ([2]; Homo sapiens, 48 h): 245 nM |
| CNc1ccn(-c2ccnc3c2cc(CN2CCN(c4ccc(C(=O)N(C)C)cc4)CC2)n3C)c(=O)c1 [Example 1m3, N,N-Dimethyl-4-(4-((1-methyl-4-(4-(methylamino)-2-oxopyridin-1 (2H)-yl)-1H-pyrrolo[2,3-b]pyridin-2-yl)methyl)piperazin-1-yl)benzamide] | 244 nM | – |
| CNc1ccn(-c2ccnc3c2cc(CN2CCN(c4ccc(C(=O)N(C)C)cn4)CC2)n3C)c(=O)c1 [Example 1m7, N,N-Dimethyl-6-(4-((1-methyl-4-(4-(methylamino)-2-oxopyridin-1 (2H)-yl)-1H-pyrrolo[2,3-b]pyridin-2-yl)methyl)piperazin-1-yl)nicotinamide] | 735 nM | – |
| [2H]C([2H])([2H])N(C(=O)c1ccc(N2CCN(Cc3cc4c(-n5ccc(NC)cc5=O)ccnc4n3C)CC2)nc1)C([2H])([2H])[2H] [Example 1m8, N,N-Bis(methyl-d3)-6-(4-((1-methyl-4-(4-(methylamino)-2-oxopyridin-1 (2H)-yl)-1H-pyrrolo[2,3-b]pyridin-2-yl)methyl)piperazin-1-yl)nicotinamide] | 640 nM | – |
| CNc1ccn(-c2ccnc3c2cc(CN2CCC(c4ccc(C(=O)N(C)C)cn4)CC2)n3C)c(=O)c1 [Example 1m11, N,N-Dimethyl-6-(1-((1-methyl-4-(4-(methylamino)-2-oxopyridin-1 (2H)-yl)-1H-pyrrolo[2,3-b]pyridin-2-yl)methyl)piperidin-4-yl)nicotinamide] | 113 nM | – |
| CNc1ccn(-c2ccnc3c2cc(CN2CC=C(c4ccc(C(=O)N(C)C)cn4)CC2)n3C)c(=O)c1 [Example 1m13, N,N-Dimethyl-1′-((1-methyl-4-(4-(methylamino)-2-oxopyridin-1 (2H)-yl)-1H-pyrrolo[2,3-b]pyridin-2-yl)methyl)-1′, 2′, 3′, 6′-tetrahydro-[2,4′-bipyridine]-5-carboxamide] | 167 nM | – |
| CNc1ccn(-c2ccnc3c2cc(CN2CC=C(c4ncc(C(=O)N(C)C)cc4C)CC2)n3C)c(=O)c1 [Example 1m14, N,N,3-Trimethyl-1′-((1-methyl-4-(4-(methylamino)-2-oxopyridin-1 (2H)-yl)-1H-pyrrolo[2,3-b]pyridin-2-yl)methyl)-1′, 2′, 3′, 6′-tetrahydro-[2,4′-bipyridine]-5-carboxamide] | 60.3 nM | – |
| CNc1ccn(-c2ccnc3c2cc(CN2CCC(c4ncc(C(=O)N(C)C)cc4C)CC2)n3C)c(=O)c1 [Example 1m15, N,N,5-Trimethyl-6-(1-((1-methyl-4-(4-(methylamino)-2-oxopyridin-1 (2H)-yl)-1H-pyrrolo[2,3-b]pyridin-2-yl)methyl)piperidin-4-yl)nicotinamide] | 572 nM | – |
| CNc1ccn(-c2ccnc3c2cc(C(C)N2CCC(c4ccc(C(=O)N(C)C)cc4)CC2)n3C)c(=O)c1 (stereo not drawn) [Example 1m71, N,N-dimethyl-4-(1-(1-(1-methyl-4-(4-(methylamino)-2-oxopyridin-1 (2H)-yl)-1H-pyrrolo[2,3-b]pyridin-2-yl)ethyl)piperidin-4-yl)benzamide] | 16.4 nM | – |
